Results published in US5025036A, “Catechol carboxylic acids” (Hoffmann-La Roche Inc., priority 1989, dated 1991).

Columns and labels:
Carrageenan pleurisy = assay: Carrageenan Pleurisy Test (In Vivo); design: species or system male Lewis rats; conditions: Rattus norvegicus, po, read-out: Rat Carrageenan Pleurisy % Inhib. of Exudate Volume
ear edema = assay: Mouse Ear Edema Test (In Vivo), arachidonic acid; design: species or system CD-1 male mice; conditions: topical, 1 h, at 1 mg topically
From the text: Invest. Dermatol. 80:48 (1983) and Hames, Opas and Bonney, "Arachidonic Acid Metabolites in Mouse Ear Edema" Advances in Inflammation Research, 11:57 (1986). […] CD-1 male mice weighing 15 to 25 g were employed, and they were designated as follows: (1) Control Group, in which no arachidonic acid or test compound was to be applied, (2) Arachidonic Acid-Treated Group, in which no test compound was to be applied, and (3) Treated Group, in which the test compound was to be applied first, followed by the application of arachidonic acid. In the case of the Group (3) animals, the test compound, dissolved in acetone, was applied to the dorsal surface of the right ear of the mouse with a 25-microliter pipettor, with the dose of the test compound being varied. After 0.5 hours in some cases and 4 hours in others, the arachidonic acid was topically applied in the same manner as above to the pretreated ear areas. In each case of arachidonic acid application, an amount of 0.5 mg dissolved in 25 microliters of acetone was used. After 1 hour, the mice were sacrificed by carbon dioxide inhalation. A 6 mm-diameter standard biopsy punch was used to obtain a uniform tissue sample from the ear of each mouse so treated, and the tissue samples were weighed to the nearest 0.1 mg. The percent inhibition of ear edema formation was calculated as follows: [formula]

[1] = tested on: myeloperoxidase accumulation (acetic acid-induced colitis); assay: Acetic Acid-Induced Colitis in Rats, In Vivo; design: species or system male rats (Sprague-Dawley)
From the text: The rat acetic acid-induced colitis bioassay has been described by J. E. Krawisz, et al. in Amer. J. Proc. Gastro. Col. Rec. Surg. 31: 11-18 (1980), and by P. Sharon and W. F. Stenson in Gastroenterolgy 88: 55-63 (1985) and 86: 453-460 (1984). Acetic acid-induced colitis is characterized by the movement of inflammatory cells into the colon, with the number of such cells in the mucosa being measured by the activity of myeloperoxidase, a marker enzyme for these cells. Positive desirable activity is indicated by a reduction in the high levels of myeloperoxidase caused by acetic acid. Male rats (Sprague-Dawley), weighing 150 to 300 g, were pretreated twice daily for two days with either the vehicle (water, or dimethylsulfoxide) or the test inhibitor compound suspended in water or dissolved in dimethylsulfoxide and orally administered. On the third day, the animals were dosed the same as on the previous two days, anesthetized with metofane, and 2 ml of 2.5% acetic acid was injected by syringe into the colonic lumen, followed immediately by 3 ml of air and a rinse consisting of 3 ml of phosphate-buffered saline (the acetic acid is present in the lumen for a sufficient period to cause inflammation without producing severe necrosis or irreversible damage). The animals were administered a second dose of the test compound in the same amount about 16 hours later. 24 hours after the acetic acid treatment, the animals were sacrificed, the colonic mucosa was surgically removed and homogenized in an aqueous buffer at pH 6 with a Tissumizer or similar device and myeloperoxidase was measured in the homogenate using o-phenylenediamine as a chromagen, as described by A. Voller, D. E. Bidwell and A. Bartlett in The Enzyme Linked Immunosorbent Assay (ELISA), Zoological Soc., London, 1979, pages 29-30. Control animals were pretreated with the vehicle and saline in place of acetic acid.

[2] = Rat In Vivo Model of Myocardial Ischemia (free radical generator infusion); design: species or system male spontaneously hypertensive rats; conditions: 10 mg/kg iv; for Rat Ischemia Model % Infarction: percent of left ventricle infarcted of the animals with an infarct
Experimental: In this preparation a free radical generating (FRG) system consisting of purine (2.3 mM), xanthine oxidase (0.02 U/ml) and iron loaded transferring (0.6 μM) complex is infused into the carotid artery near the ostium of the coronary artery in spontaneously hypertensive rats. Blood is withdrawn before and 24 hours after the FRG challenge for measuring the isoenzymes of lactic acid dehydrogenase (LDH1 :LDH2). An increase in LDH1 :LDH2 ratio reflects cell damage to the myocardium. The electrocardiogram is also taken before and 24 hours after the FRG infusion. At the end of the experiment the heart is removed, sliced in a breadloaf fashion, and stained with triphenyltetrazolium chloride to determine infarct size. A drug or vehicle is administered intravenously 10-30 minutes before the FRG challenge. A drug is considered active if there is no elevation of the LDH1 :LDH2 ratio, no ECG abnormalities and no histologic evidence of an infarction.
Male spontaneously hypertensive rats (280-320 g) from Taconic Farms, were lightly anesthetized with sodium pentobarbital (30-50 mg/kg, i.p.). […] A catheter of PE 50 tubing was inserted into the right common carotid artery to a position proximal to the ostia of the coronary arteries and used to sample blood and infuse the free radical generator (FRG) system. A second catheter of PE 10 tubing was inserted into the left jugular vein to administer drugs. The infusion system for the FRG consisted of a double syringe infusion pump, Sage Model 351, with one syringe containing xanthine oxidase (0.01 units/ml) in a HEPES (0.05M) buffer and the other syringe containing purine (2.3 mM) plus Fe^3+ loaded transferring (0.06 μM) in a HEPES (0.05M) buffer. The FRG infused separately mixes simultaneously near the ostia of the coronary arteries. This infusion was delivered at a rate of 0.03 ml/minute for a total infusion time of 10 minutes. The drugs were infused over a one minute period in a 0.9% saline vehicle.
Standard Lead II ECG was monitored continuously on a Hewlett-Packard 7758A recorder prior to treatment, throughout the FRG infusion and 10 minutes post infusion. Catheters were removed and animals were allowed to recover and fed standard rat chow and water ad libitum. 24 hours following the FRG infusion, animals were reanesthetized with sodium pentobarbital (30-50 mg/kg, i.p.) and an ECG was obtained. Blood samples were taken prior to and after the FRG infusion and at the conclusion of the experiment. These samples were centrifuged and assayed for total lactate dehydrogenase (LDH) and lactate dehydrogenase isoenzymes (LDH1 :LDH2), using electrophoresis.
The animals were sacrificed, the hearts rapidly excised, and washed free of blood and sectioned. The left ventricle was weighed and stored in a Revco® freezer at -70° C. The left ventricle was sliced into 2 mm-thick rings, incubated in a 1% triphenyltetrazolium chloride solution for 20 minutes, and then fixed in a 10% formalin solution. Infarcted areas were measured and quantitated as a percentage of the total left ventricular volume.

CCCc1c(OCCCCCCc2ccc(C(C)C)c(O)c2O)ccc(C(=O)O)c1O [4-[6-[2,3-dihydroxy-4-(1-methylethyl)phenyl]hexyloxy]-2-hydroxy-3-propylbenzoic acid]
inhibition in vivo at 75 mg/kg (Carrageenan pleurisy; at 75 mg/kg p.o): 47% | inhibition in vivo at 1 mg (ear edema): 45% | Rat Acetic Acid Colitis Model % Inhib. of Myeloperoxidase Accumulation ([1]; 10 mg/kg p.o): 53 ± 12% | Rat Acetic Acid Colitis Model % Inhib. of Myeloperoxidase Accumulation ([1]; 100 mg/kg p.o): 86 ± 9% | Rat Ischemia Model Infarcts/Total [2]: 1/5 | Rat Ischemia Model % Infarction [2]: 5%

CCCc1c(OCCCCCCCCc2cccc(O)c2O)ccc(C(=O)O)c1O [4-[8-(2,3-dihydroxyphenyl)octyloxy]-2-hydroxy-3-propylbenzoic acid]
inhibition in vivo at 100 mg/kg (Carrageenan pleurisy; at 100 mg/kg p.o): 66% | inhibition in vivo at 1 mg (ear edema): 78% | Rat Acetic Acid Colitis Model % Inhib. of Myeloperoxidase Accumulation ([1]; 10 mg/kg p.o): 35 ± 7% | Rat Acetic Acid Colitis Model % Inhib. of Myeloperoxidase Accumulation ([1]; 100 mg/kg p.o): 27 ± 3% | Rat Ischemia Model Infarcts/Total [2]: 1/5 | Rat Ischemia Model % Infarction [2]: 8%
